Values of other authors as cited in patent publication US11103580B2, “Methods and systems for treating cell proliferation disorders” (Immunolight, LLC, priority 2007, dated 2021).
Where two headings read alike, the source gives them in different places. Each block holds one molecule with its values, some of them ahead of it.

Columns and labels:
leukocytes = conditions: administered orally to a patient
rapidly dividing tissue = conditions: in vivo
[1] = in excess
tumors = conditions: in vivo
[2] = for Length of photosensitization: Table 3, known photosensitizers

Molecule: COc1c2occc2cc2ccc(=O)oc12 [Compound 8-MOP, 8-methoxypsoralen]
inducing an apoptosis of leukocytes (leukocytes): effective at inducing an apoptosis of leukocytes
safety (leukocytes): safe

Molecule: Cobalt-57-cyanocobalamin
uptake in rapidly dividing tissue (rapidly dividing tissue): increased uptake

Molecule: CC(=O)[O-].CC(=O)[O-].CCc1c(CC)c2cc3nc(cnc4cc(OCCOCCOCCOC)c(OCCOCCOCCOC)cc4ncc4nc(cc1[n-]2)C(CCCO)=C4C)C(C)=C3CCCO.O.[Lu+3] [Lutetium texaphryin, Motexafin lutetium]
selectivity for tumors compared to normal tissues (tumors): one of the greatest reported selectivities for tumors
Length of photosensitization [2]: 24 to 48 h
duration of skin photosensitivity ([2]; clinical use): 24 to 48 h

Molecule: Oc1cccc(-c2c3nc(c(-c4cccc(O)c4)c4ccc([nH]4)c(-c4cccc(O)c4)c4nc(c(-c5cccc(O)c5)c5ccc2[nH]5)CC4)C=C3)c1 [Foscan, Tetra (m-hydroxyphenyl) chlorin]
Length of photosensitization [2]: 2 weeks
duration of skin photosensitivity ([2]; approximately): approximately 2 weeks

The remaining lines, values ahead:

uptake in rapidly dividing tissue (rapidly dividing tissue): increased uptake
Molecule: C/C1=C2/[N-][C@H]([C@H](CC(N)=O)[C@@]2(C)CCC(=O)NC[C@@H](C)OP(=O)([O-])O[C@H]2[C@@H](O)[C@@H](n3cnc4cc(C)c(C)cc43)O[C@@H]2CO)[C@]2(C)N=C(/C(C)=C3N=C(/C=C4N=C1[C@@H](CCC(N)=O)C\4(C)C)[C@@H](CCC(N)=O)[C@]\3(C)CC(N)=O)[C@@H](CCC(N)=O)[C@]2(C)CC(N)=O.[CH3-].[Co+3] [methylcobalamin]

water solubility: water soluble
excretion [1]: excreted by gloinerular filtration
Molecule: Vitamin B12
